Test results reported in ChEMBL document CHEMBL2177072, “Design and synthesis of β-site amyloid precursor protein cleaving enzyme (BACE1) inhibitors with in vivo brain reduction of β-amyloid peptides” (J Med Chem, 2012).
Active and inactive are the calls of the source. The calls are words filed in the database; no cut-off is given here.

Key:
Beta-secretase 1 [1] = target: T1, Beta-secretase 1 (Homo sapiens, UniProt P56817)
Beta-secretase 1 [2] = target: T1, Beta-secretase 1; type: cell-based, SH-SY5Y
Beta-secretase 1 [3] = target: Beta-secretase 1 (Mus musculus, UniProt P56818)
Description: Inhibition of BACE1-mediated amyloid beta 40 release in C57/BL6 mouse primary cortical neurons after overnight incubation by ELISA

Beta-secretase 2 = target: T2, Beta-secretase 2 (Homo sapiens, UniProt Q9Y5Z0)
T2 sequence (Q9Y5Z0 whole entry): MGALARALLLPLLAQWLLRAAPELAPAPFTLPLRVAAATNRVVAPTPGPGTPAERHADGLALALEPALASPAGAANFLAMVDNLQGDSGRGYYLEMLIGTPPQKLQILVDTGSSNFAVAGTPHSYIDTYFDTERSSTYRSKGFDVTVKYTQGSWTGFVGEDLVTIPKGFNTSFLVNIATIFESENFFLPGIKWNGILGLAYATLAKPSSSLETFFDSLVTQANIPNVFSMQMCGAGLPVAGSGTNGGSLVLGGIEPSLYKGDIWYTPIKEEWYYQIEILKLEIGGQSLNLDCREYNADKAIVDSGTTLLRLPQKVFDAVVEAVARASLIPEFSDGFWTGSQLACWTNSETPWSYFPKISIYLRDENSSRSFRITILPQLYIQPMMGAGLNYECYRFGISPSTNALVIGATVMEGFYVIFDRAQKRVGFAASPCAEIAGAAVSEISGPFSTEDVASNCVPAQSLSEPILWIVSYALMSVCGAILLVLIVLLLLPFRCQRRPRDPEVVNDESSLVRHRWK

in vitro [4] = settings: human, Caco-2
Description: Apparent permeability from apical to basal side of human Caco2 cells at 10 uM after 60 mins by LC/MS analysis

physchem [5] = test: physchem
Description: Lipophilicity, log D of the compound by RP-HPLC analysis

in vitro [6] = settings: rat, hepatocytes
physchem [7] = test: physchem; remark: listed apart in the source
Mus musculus [8] = organism: Mus musculus; test: Antialzheimer activity in C57BL/6 mouse assessed as unbound brain concentration required for 20% reduction in amyloid beta 40 level in brain at 1.5 by ELISA; type: functional
Brain [9] = test: Free drug concentration in C57BL/6 mouse brain at 300 umol/kg, po at […]; type: ADME, organism-based; settings: in vivo
Mus musculus [10] = test: Antialzheimer activity in C57BL/6 mouse assessed as reduction in sAPPbeta level in brain at 300 umol/kg, po; type: functional, organism-based
[11] = Fraction unbound in C57BL/6 mouse brain at 300 umol/kg, po; type: ADME, organism-based
Mus musculus [12] = test: Antialzheimer activity in C57BL/6 mouse assessed as reduction in amyloid beta 42 level in brain at 300 umol/kg, po; type: functional, organism-based
Mus musculus [13] = test: Antialzheimer activity in C57BL/6 mouse assessed as reduction in amyloid beta 40 level in brain at 300 umol/kg, po at […] by ELISA relative to control; type: functional; design: scale not given: the % may be the effect or the level left
Plasma [14] = test: Free drug concentration in C57BL/6 mouse plasma at 300 umol/kg, po at […]; type: ADME, organism-based; settings: in vivo
[15] = Fraction unbound in C57BL/6 mouse plasma at 300 umol/kg, po; type: ADME, organism-based
[16] = target: Voltage-gated inwardly rectifying potassium channel KCNH2 (Homo sapiens, UniProt Q12809)
Description: Inhibition of human ERG expressed in CHO cells by IonWorks assay

in vitro [17] = settings: human, Caco-2; remark: listed apart in the source
Description: Efflux ratio of apparent permeability from basal to apical to apical to basal side of human Caco2 cells at 10 uM after 60 mins by LC/MS analysis

in vivo [18] = settings: mouse, po
Description: Oral bioavailability in mouse

in vivo [19] = settings: mouse, po; remark: listed apart in the source
Description: Half life in po dosed mouse

Mus musculus [20] = test: Antialzheimer activity in C57BL/6 mouse assessed as reduction in amyloid beta 40 level in brain at 80 umol/kg, po at […] by ELISA relative to control; type: functional; design: scale not given: the % may be the effect or the level left
[21] = Fraction unbound in C57BL/6 mouse brain at 80 umol/kg, po; type: ADME, organism-based
Plasma [22] = test: Free drug concentration in C57BL/6 mouse plasma at 80 umol/kg, po at […]; type: ADME, organism-based; settings: in vivo
Mus musculus [23] = test: Antialzheimer activity in C57BL/6 mouse assessed as reduction in amyloid beta 42 level in brain at 80 umol/kg, po; type: functional, organism-based
Mus musculus [24] = test: Antialzheimer activity in C57BL/6 mouse assessed as reduction in sAPPbeta level in brain at 80 umol/kg, po; type: functional, organism-based
Brain [25] = test: Free drug concentration in C57BL/6 mouse brain at 80 umol/kg, po at […]; type: ADME, organism-based; settings: in vivo
[26] = Fraction unbound in C57BL/6 mouse plasma at 80 umol/kg, po; type: ADME, organism-based
[27] = Ratio of free drug concentration in brain to free drug concentration in plasma in C57BL/6 mouse at 80 umol/kg, po at […]; type: ADME, organism-based

T1 sequence (P56817 whole entry): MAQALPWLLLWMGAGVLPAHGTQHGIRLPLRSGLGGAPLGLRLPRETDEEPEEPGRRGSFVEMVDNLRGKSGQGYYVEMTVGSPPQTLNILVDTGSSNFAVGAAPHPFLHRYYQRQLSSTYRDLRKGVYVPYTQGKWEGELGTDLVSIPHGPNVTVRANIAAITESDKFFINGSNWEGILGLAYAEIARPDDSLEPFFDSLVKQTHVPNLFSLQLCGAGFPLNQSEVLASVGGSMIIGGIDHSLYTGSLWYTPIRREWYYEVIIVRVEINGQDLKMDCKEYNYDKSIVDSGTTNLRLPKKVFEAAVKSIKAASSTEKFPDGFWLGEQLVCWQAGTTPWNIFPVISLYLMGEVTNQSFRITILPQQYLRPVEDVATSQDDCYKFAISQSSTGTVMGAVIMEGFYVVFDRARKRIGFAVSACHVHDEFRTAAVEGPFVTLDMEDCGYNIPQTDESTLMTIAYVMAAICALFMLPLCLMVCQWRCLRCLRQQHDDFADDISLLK
Sequence of Beta-secretase 1 (Mus musculus, UniProt P56818) (P56818 whole entry): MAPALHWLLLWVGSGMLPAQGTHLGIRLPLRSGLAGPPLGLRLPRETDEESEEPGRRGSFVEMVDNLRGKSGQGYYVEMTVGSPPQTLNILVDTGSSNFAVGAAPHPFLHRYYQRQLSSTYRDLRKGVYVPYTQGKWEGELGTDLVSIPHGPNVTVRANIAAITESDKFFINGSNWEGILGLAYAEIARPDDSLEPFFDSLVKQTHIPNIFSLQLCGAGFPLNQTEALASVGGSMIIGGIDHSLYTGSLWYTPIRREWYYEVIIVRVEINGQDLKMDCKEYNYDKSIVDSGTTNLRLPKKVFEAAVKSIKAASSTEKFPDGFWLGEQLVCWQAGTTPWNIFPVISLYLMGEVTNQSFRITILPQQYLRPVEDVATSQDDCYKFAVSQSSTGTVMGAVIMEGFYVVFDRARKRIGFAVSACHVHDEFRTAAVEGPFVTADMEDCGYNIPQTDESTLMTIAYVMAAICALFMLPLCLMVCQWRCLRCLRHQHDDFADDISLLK
Sequence of Voltage-gated inwardly rectifying potassium channel KCNH2 (Q12809 whole entry): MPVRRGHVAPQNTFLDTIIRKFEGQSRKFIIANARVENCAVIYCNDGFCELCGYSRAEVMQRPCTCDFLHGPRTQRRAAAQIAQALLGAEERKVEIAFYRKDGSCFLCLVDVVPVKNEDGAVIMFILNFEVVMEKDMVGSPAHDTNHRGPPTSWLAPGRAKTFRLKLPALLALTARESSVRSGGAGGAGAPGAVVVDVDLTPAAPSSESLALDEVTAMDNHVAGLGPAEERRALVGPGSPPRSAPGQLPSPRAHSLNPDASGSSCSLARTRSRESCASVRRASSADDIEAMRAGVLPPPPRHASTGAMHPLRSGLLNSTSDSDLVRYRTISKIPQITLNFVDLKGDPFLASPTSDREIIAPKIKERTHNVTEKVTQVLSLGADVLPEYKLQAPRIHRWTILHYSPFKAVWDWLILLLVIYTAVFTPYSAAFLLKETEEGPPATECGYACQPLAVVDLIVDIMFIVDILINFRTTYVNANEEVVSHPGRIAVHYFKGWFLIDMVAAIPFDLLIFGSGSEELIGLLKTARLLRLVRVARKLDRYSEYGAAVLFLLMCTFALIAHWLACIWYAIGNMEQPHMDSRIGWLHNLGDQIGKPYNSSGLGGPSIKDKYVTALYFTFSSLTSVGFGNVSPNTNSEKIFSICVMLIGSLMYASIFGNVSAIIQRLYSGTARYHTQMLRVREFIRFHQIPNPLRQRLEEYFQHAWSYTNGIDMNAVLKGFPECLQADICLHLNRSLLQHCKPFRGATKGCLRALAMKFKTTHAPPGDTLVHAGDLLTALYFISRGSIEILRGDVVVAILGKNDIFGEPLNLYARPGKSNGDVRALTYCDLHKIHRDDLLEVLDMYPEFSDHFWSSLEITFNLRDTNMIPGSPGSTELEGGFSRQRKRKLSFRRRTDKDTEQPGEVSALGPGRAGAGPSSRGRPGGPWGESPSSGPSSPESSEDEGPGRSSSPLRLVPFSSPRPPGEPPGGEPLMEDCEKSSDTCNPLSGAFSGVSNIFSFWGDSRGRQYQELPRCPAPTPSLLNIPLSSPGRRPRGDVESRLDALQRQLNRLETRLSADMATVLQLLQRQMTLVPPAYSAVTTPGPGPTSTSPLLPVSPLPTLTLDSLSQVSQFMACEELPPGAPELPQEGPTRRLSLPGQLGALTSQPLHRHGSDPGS

CC#Cc1cncc(-c2cccc(C3(c4ccnc(C(F)F)c4)N=C(N)c4c(F)cccc43)c2)c1 (stereo not given)
IC50 (Beta-secretase 1 [1]): 6.49 nM | IC50 (Beta-secretase 1 [2]): 2.97 nM

CCn1cc([C@]2(c3cccc(C#CC4CC4)c3)N=C(N)c3c(F)cccc32)cc(C)c1=O
IC50 (Beta-secretase 1 [3]): 3.4 nM | Ki (Beta-secretase 2): 78 nM | IC50 (Beta-secretase 1 [1]): 6.08 nM | IC50 (Beta-secretase 1 [2]): 0.76 nM

CCn1cc([C@]2(c3cccc(NC(=O)c4ccc(Cl)cn4)c3)N=C(N)c3c(F)cccc32)cc(C)c1=O
IC50 (Beta-secretase 1 [1]): 2.49 nM | IC50 (Beta-secretase 1 [2]): 0.15 nM

NC1=NC(c2cccc(-c3cncnc3)c2)(c2ccnc(C(F)(F)F)c2)c2cccc(F)c21 (stereo not given)
IC50 (Beta-secretase 1 [3]): 436 nM | IC50 (Beta-secretase 1 [2]): 43.1 nM

NC1=NC(c2ccncc2)(c2cccc(-c3cncnc3)c2)c2cccc(F)c21 (racemic)
IC50 (Beta-secretase 1 [1]): 158 nM | IC50 (Beta-secretase 1 [2]): 11.4 nM

NC1=NC(c2ccnc(C(F)(F)F)c2)(c2ccc(F)c(-c3cncnc3)c2)c2cccc(F)c21 (racemic)
Papp A→B at 1 h, 10 µM (in vitro [4]): 25 ×10⁻⁶ cm/s | logD (physchem [5]): 3 | hepatocyte CLint (in vitro [6]): 6.9 µL/min/1e6 cells | pKa (physchem [7]): 6.4

NC1=NC(c2cccc(-c3cncnc3)c2)(c2ccnc(C(F)F)c2)c2cccc(F)c21 (racemic)
logD (physchem [5]): 2 | hepatocyte CLint (in vitro [6]): 27.5 µL/min/1e6 cells | pKa (physchem [7]): 6.8

NC1=NC(c2cccc(-c3cncnc3)c2)(c2ccnc(C(F)(F)F)c2)c2ccccc21 (stereo not given)
IC50 (Beta-secretase 1 [1]): 134 nM | IC50 (Beta-secretase 1 [2]): 2.1 nM

NC1=N[C@](c2ccnc(C(F)(F)F)c2)(c2ccc(F)c(-c3cncnc3)c2)c2cccc(F)c21
Papp A→B at 1 h, 10 µM (in vitro [4]): 30 ×10⁻⁶ cm/s | Activity (Mus musculus [8]): 114 nM | Drug uptake(free) (Brain [9]): 406 nM | Activity (Mus musculus [10]): Active | fraction unbound [11]: 0.025 | IC50 (Beta-secretase 1 [3]): 204 nM | Activity (Mus musculus [12]): Active | logD (physchem [5]): 3 | hepatocyte CLint (in vitro [6]): 10 µL/min/1e6 cells | Activity (Mus musculus [13]): 50% | Cp(f) (Plasma [14]): 795 nM | fraction unbound [15]: 0.044

COc1cc(C2(c3cccc(-c4cncnc4)c3)N=C(N)c3c(F)cccc32)ccn1 (stereo not given)
IC50 (Beta-secretase 1 [2]): 21.5 nM

N#Cc1cncc(-c2cccc(C3(c4ccnc(C(F)(F)F)c4)N=C(N)c4c(F)cccc43)c2)c1 (stereo not given)
Papp A→B at 1 h, 10 µM (in vitro [4]): 16 ×10⁻⁶ cm/s | logD (physchem [5]): 3.7 | hepatocyte CLint (in vitro [6]): 5.2 µL/min/1e6 cells | IC50 (Beta-secretase 1 [1]): 253 nM | IC50 [16]: 1700 nM | efflux ratio at 1 h, 10 µM (in vitro [17]): 0.8 | IC50 (Beta-secretase 1 [2]): 29.9 nM

CCn1cc(C2(c3cccc(-c4cncc(C#N)c4)c3)N=C(N)c3c(F)cccc32)cc(C)c1=O (stereo not given)
IC50 (Beta-secretase 1 [1]): 8.26 nM | IC50 (Beta-secretase 1 [2]): 1.84 nM

Cc1cc(C2(c3cccc(-c4cncnc4)c3)N=C(N)c3c(F)cccc32)cc(C)n1 (stereo not given)
IC50 (Beta-secretase 1 [1]): 1380 nM | IC50 (Beta-secretase 1 [2]): 10.7 nM

NC1=N[C@@](c2cccc(-c3cncnc3)c2)(c2ccnc(C(F)F)c2)c2cc(F)cc(F)c21
IC50 (Beta-secretase 1 [3]): 53 nM | Ki (Beta-secretase 2): 770 nM | IC50 (Beta-secretase 1 [1]): 36.2 nM | IC50 (Beta-secretase 1 [2]): 8.64 nM

CCn1cc(C2(c3cccc(-c4cncnc4)c3)N=C(N)c3c(F)cccc32)cc(C)c1=O (stereo not given)
IC50 (Beta-secretase 1 [1]): 15.5 nM | IC50 (Beta-secretase 1 [2]): 9.09 nM

COc1ccc(C2(c3cccc(-c4cncnc4)c3)N=C(N)c3c(F)cccc32)cc1 (stereo not given)
IC50 (Beta-secretase 1 [1]): 135 nM | IC50 (Beta-secretase 1 [2]): 12.5 nM

CC#Cc1cncc(-c2cccc([C@@]3(c4cc(C)c(=O)n(CC)c4)N=C(N)c4c(F)cc(F)cc43)c2)c1
IC50 (Beta-secretase 1 [1]): 2.59 nM | IC50 (Beta-secretase 1 [2]): 0.38 nM

NC1=N[C@@](c2cccc(-c3cncnc3)c2)(c2ccnc(C(F)F)c2)c2cccc(F)c21 [AZD-3839]
IC50 (Beta-secretase 1 [3]): 51 nM | bioavailability (in vivo [18]): 73% | half-life (in vivo [19]): 1.5 h | logD (physchem [5]): 2 | Ki (Beta-secretase 2): 370 nM | Activity (Mus musculus [20]): 31% | fraction unbound [21]: 0.079 | Cp(f) (Plasma [22]): 170 nM | hepatocyte CLint (in vitro [6]): 20.9 µL/min/1e6 cells | Activity (Mus musculus [23]): Active | Activity (Mus musculus [24]): Active | pKa (physchem [7]): 7.1 | Drug uptake(free) (Brain [25]): 119 nM | fraction unbound [26]: 0.027 | K(p,uu,brain) [27]: 0.7

CCn1cc(C2(c3cccc(-c4cncc(F)c4)c3)N=C(N)c3c(F)cccc32)cc(C)c1=O (stereo not given)
IC50 (Beta-secretase 1 [2]): 3.98 nM

NC1=NC(c2ccncc2)(c2cccc(-c3cncc(F)c3)c2)c2cccc(F)c21 (stereo not given)
IC50 (Beta-secretase 1 [1]): 137 nM | IC50 (Beta-secretase 1 [2]): 25.6 nM

COc1c(C)cc(C2(c3cccc(-c4cncnc4)c3)N=C(N)c3c(F)cccc32)nc1C (stereo not given)
IC50 (Beta-secretase 1 [3]): 40 nM | Ki (Beta-secretase 2): 1700 nM | IC50 (Beta-secretase 1 [2]): 2.92 nM

NC1=NC(c2ccncc2)(c2cccc(-c3cncnc3)c2)c2ccccc21 (stereo not given)
Papp A→B at 1 h, 10 µM (in vitro [4]): 3.4 ×10⁻⁶ cm/s | logD (physchem [5]): 0.7 | hepatocyte CLint (in vitro [6]): 11.7 µL/min/1e6 cells | pKa (physchem [7]): 8.4 | IC50 [16]: 16000 nM | efflux ratio at 1 h, 10 µM (in vitro [17]): 12 | IC50 (Beta-secretase 1 [2]): 90.3 nM

COc1c(C)cc(C2(c3cccc(-c4cncnc4)c3)N=C(N)c3c(F)cccc32)cc1C#N (stereo not given)
Papp A→B at 1 h, 10 µM (in vitro [4]): 23 ×10⁻⁶ cm/s | logD (physchem [5]): 3.1 | hepatocyte CLint (in vitro [6]): 30.9 µL/min/1e6 cells | IC50 (Beta-secretase 1 [2]): 3.4 nM

Cc1cc(C2(c3cccc(-c4cncnc4)c3)N=C(N)c3c(F)cccc32)cn(C)c1=O (stereo not given)
IC50 (Beta-secretase 1 [3]): 30 nM | Ki (Beta-secretase 2): 740 nM | IC50 (Beta-secretase 1 [1]): 60.8 nM | IC50 (Beta-secretase 1 [2]): 11.4 nM

NC1=N[C@](c2ccncc2)(c2cccc(-c3cncnc3)c2)c2cccc(F)c21
IC50 (Beta-secretase 1 [3]): 68 nM | Ki (Beta-secretase 2): 790 nM | IC50 (Beta-secretase 1 [1]): 124 nM | IC50 (Beta-secretase 1 [2]): 8.25 nM
